Data on 12 molecules can be found in patent publication US12527762B2 (priority 2021, dated 2026).

“And” between values parts separate entries of the source, which are not always exact repeats. Identical values can stand only once. Like-named read-outs stand apart in the source and are kept apart here.

One data set has as its system SARS-CoV-2. Put plainly: microbe, parasite or virus in culture. It is filed as cell-based.
A further data set is described as follows: in vitro. Particulars: African green monkey.
The subject of data set [1] is HCC1937 triple negative breast cancer cell line. The data set can be described thus: Luminescent cell viability assay (CellTiter glo), subtype-specific breast cancer cell lines. Type of data set: cell-based. For orientation: Cellular ATP, detected with luciferase, serves as a proxy for viable cell number.
Data set [2] deals with MDA-MB-231 triple negative breast cancer cell line. The description is as above. Type of data set: cell-based. The settings on record: for IC50: MDA-MB-231, triple negative breast cancer cell line; for IC50 fold lower than Cisplatin: MDA-MB-231 cells.
For data set [3], the system named is PANC-1 pancreatic cancer cell line. The data set can be described thus: Inhibition of cancer cell proliferation, CCK-8 assay. It is filed as cell-based.
In data set [4] the test system is MIAPACA-2 pancreatic cancer cell line. The data set is described as above. It is filed as cell-based.
Data set [5] has as its system A-549 non-small cell lung cancer cell line. Described as above. Type of data set: cell-based.
Data set [6] has as its system H-1299 non-small cell lung cancer cell line. The description is as above. It is filed as cell-based.
The test system of data set [7] is MCF-7 breast cancer cell line. The description is as above. It is filed as cell-based.
In data set [8] the test system is MDA-MB-231 breast cancer cell line. The description is as above. It is filed as cell-based.
In data set [9] the test system is Hep-3B liver cancer cell line. Described as above. Type of data set: cell-based.
Data set [10] concerns Huh-7 liver cancer cell line. Described as above. It is filed as cell-based.
The test system of data set [11] is ZR-75-1 hormone-positive breast cancer cell line. The data set can be described thus: Luminescent cell viability assay (CellTiter glo), subtype-specific breast cancer cell lines. Type of data set: cell-based. The settings on record: for IC50: ZR-75-1, hormone-positive breast cancer cell line; for IC50 fold lower than Tamoxifen: ZR-75-1 cells.
The test system of data set [12] is MDA-MB-453 HER2-positive breast cancer cell line. The description is as above. Type of data set: cell-based.
In data set [13] the test system is HCC1419 HER2-positive breast cancer cell line. The description is as above. Type of data set: cell-based. The settings on record: for IC50: HCC1419, HER2-positive breast cancer cell line; for IC50 fold lower than Herceptin: HCC1419 cells.
Data set [14] concerns MCF7/PR Paclitaxel resistant MCF7 cell line. Described as above. Type of data set: cell-based.
For data set [15], the system named is PANC-1 pancreatic cancer cell line. The settings on record: value from literature, read-out: IC50 (positive control); cited from earlier work.
In data set [16] the test system is MIAPACA-2 pancreatic cancer cell line. The settings on record: value from literature, read-out: IC50 (positive control); cited from earlier work.
Data set [17] in a line: Solubility of niclosamide in pH 7 buffer solution (HPLC). It is filed as physicochemical. The method, then:
A pH 7 solution prepared by mixing 0.1 N potassium phosphate and 0.1 N sodium hydroxide was used as the pH 7 buffer solution. […] After 1 hour of stirring, 5 ml of a supernatant was filtered with a 0.45 μm PVDF filter, and then the amount of dissolved niclosamide was evaluated using the filtered solution as a sample.

The format of data set [18] is in vitro ADME. Particulars: PAMPA. As to the method:
The permeability of an artificial membrane (barrier membrane from PermeaPad, 25 mm) to niclosamide of the cocrystal of Example 17 of the present invention was evaluated using the side-bi-side cell system, and compared with that of the niclosamide single material. 5 ml of an FeSSIF solution (37° C.) at pH 6.5 added with 3% (w/w) Kolliphor ELP was taken and contained in a donor cell, and […] of each sample was weighed and administered to the donor cell. 5 ml of a PBS solution of pH 7.4 added with 20% (w/w) HP-β-CD was added to the acceptor cell, the test was started, and 200 μl of the solution was taken 5 times from the acceptor cell every predetermined time and used as the test solution. Then, the acceptor cell was filled with the PBS solution of pH 7.4 added with 1 ml of 20% (w/w) HP-p-CD, and the total volume was maintained at 5 ml.
(In general: PAMPA measures passive passage across an artificial lipid membrane.)

The test system of data set [19] is MCF-7 breast cancer cell line. The settings on record: value from literature, read-out: IC50 (positive control); cited from earlier work.
Data set [20] has as its system MDA-MB-231 breast cancer cell line. The settings on record: value from literature, read-out: IC50 (positive control); cited from earlier work.
Data set [21] can be described thus: Artificial membrane permeability of camostat, side-bi-side cell system (GIT-0-Lipid on PVDF membrane). It is filed as in vitro ADME. The method, then: As an artificial membrane, 200 μl of a GIT-0-Lipid solution was used by dropping on the center of a 25 mm hydrophobic PVDF membrane. 5 ml of a 37° C. pH 5.0 FeSSIF solution was taken and contained in a donor cell, and 20 mg of the sample was weighed and administered to the donor cell. The test was started after adding 5 ml of an ethyl alcohol. pH 7.4 PBS buffer (1:9, v/v) solution to an acceptor cell, and 200 μl of the solution was taken five times from the acceptor cell every predetermined time and used as a test solution. Then, the acceptor cell was filled with 1 ml of the ethyl alcohol: pH 7.4 PBS buffer (1:9, v/v) solution to maintain a total volume of 5 ml.

In data set [22] the test system is Hep-3B liver cancer cell line. Particulars: value from literature, read-out: IC50 (positive control); cited from earlier work.
The subject of data set [23] is Huh-7 liver cancer cell line. The settings on record: value from literature, read-out: IC50 (positive control); cited from earlier work.
Setting [24] is: Severe acute respiratory syndrome coronavirus 2, SARS-CoV-2 in Vero cells, 24 hours after infection, read-out: IC50.
Where [25] appears, read: SARS-CoV-2 in Vero cells, 24 hours after infection, read-out: IC50.

For `CCN(CC)CCCC(C)Nc1ccnc2cc(Cl)ccc12` (stereo not shown) [Chloroquine], the IC50 in the data set with SARS-CoV-2 (setting [24]) was 7.47 µM. The molecule further had a CC50 in the data set “in vitro” of more than 150 µM.

Regarding `N.N.[Cl][Pt][Cl]` [Cisplatin, reference compound], the IC50 is 12.3 µM in [1] and not below 25 µM in [2].

In the case of `CN(C)C(=O)COC(=O)Cc1ccc(OC(=O)c2ccc(NC(=N)N)cc2)cc1.O=C(Nc1ccc([N+](=O)[O-])cc1Cl)c1cc(Cl)ccc1O` [Example 1], the IC50 in [3] (PANC-1, 48 hours drug treatment) is 0.0993 µM; in data set [4] (MiaPaCa-2, 48 hours drug treatment), 0.729 µM; in [5] (A-549, 48 hours drug treatment), 0.976 µM; in data set [6] (H-1299, 48 hours drug treatment), 0.381 µM; in data set [7] (MCF-7, 48 hours drug treatment), 0.428 µM; in data set [8] (MDA-MB-231, 48 hours drug treatment) it was 0.126 µM. The IC50 in data set [9] (Hep-3B, 48 hours drug treatment) turned out to be 0.0413 µM; in data set [10] (Huh-7, 48 hours drug treatment) it was 0.134 µM; in data set [11], 5.37 µM; in data set [12], 7.46 µM; in data set [13], 1.27 µM; in [1], 4.98 µM. For the same molecule, the IC50 in data set [2] amounted to 1.75 µM; in [14], 5.69 µM; in the data set on SARS-CoV-2 (setting [25]), 0.16 µM. Also, the results for the “IC50 fold lower than gemcitabine” value in [3] (PANC-1 cell line) and in [4] (MIAPACA-2 cell line) were 432 fold and 127 fold, respectively. In addition, the “IC50 fold lower than gefitinib” value is reported as 13 fold in data set [5] (A-549 cells) and 45 fold in data set [6] (H-1299 cells). The “IC50 fold lower than docetaxel” value in data set [7] (MCF-7 cells) worked out at 1.7 fold; in data set [8] (MDA-MB-231 cells) it was 5 fold. Also, the “IC50 fold lower than Sorafenib” value was 297 fold in [9] (Hep-3B cells) and 44 fold in data set [10] (Huh-7 cells). In addition, the “IC50 fold lower than Tamoxifen” value in data set [11] was 1.7 fold. In addition, the “IC50 fold lower than Herceptin” value in data set [13] is reported as 19 fold. For the same molecule, in data set [2], the “IC50 fold lower than Cisplatin” value is 14 fold. The “SI (selectivity index, CC50/IC50)” value with SARS-CoV-2 (SARS-CoV-2 in Vero cells) is given as 306. The same molecule displayed a CC50 in the data set with Vero cells of more than 50 µM.

Consider `Nc1ccn([C@@H]2O[C@H](CO)[C@@H](O)C2(F)F)c(=O)n1` [Gemcitabine], for which the IC50 in data set [15] was 42.9 µM; in data set [16], 92.7 µM.

For the molecule `CCC(CC)COC(=O)[C@H](C)N[P@](=O)(OC[C@H]1O[C@@](C#N)(c2ccc3c(N)ncnn23)[C@H](O)[C@@H]1O)Oc1ccccc1` [Remdesivir], in the data set with SARS-CoV-2 (SARS-CoV-2 in Vero cells), the “IC50 fold higher than the IC50 of the cocrystal” value is “about 21.75 fold” and the “SI (selectivity index, CC50/IC50)” value is given as 14.35. The same molecule displayed an IC50 in the data set on SARS-CoV-2 (Severe acute respiratory syndrome coronavirus 2, Vero, 24 h) of 3.48 µM. Further, the CC50 in “in vitro” is more than 50 µM.

Regarding `O=C(Nc1ccc([N+](=O)[O-])cc1Cl)c1cc(Cl)ccc1O` [Niclosamide], the “pH 7 solubility” value is given as “hardly detected” in [17] and less than 0.3 μg/ml in data set [17] (1 h). The “Cumulative permeation amount of drug” value in data set [18] (4 mg/ml) came to 1.18 μg/ml/cm^2/h.

Regarding `CN(C)C(=O)COC(=O)Cc1ccc(OC(=O)c2ccc(NC(=N)N)cc2)cc1.O=C(Nc1ccc([N+](=O)[O-])cc1Cl)c1cc(Cl)ccc1O` [Example 17], the “pH 7 solubility” value in data set [17] amounted to 55.2 μg/ml. The “Cumulative permeation amount of drug” value in data set [18] was determined as 2.03 μg/ml/cm^2/h. Moreover, the “cumulative permeation amount of niclosamide, fold better than niclosamide single material” value in [18] was 1.72 fold. The IC50 in data set [11] worked out at 6.29 µM; in [12] it was 7.48 µM; in data set [13] it was 1.5 µM; in data set [1], 4.55 µM; in [2] it was 2.25 µM; in data set [14], 5.82 µM. Further, the IC50 in the data set with SARS-CoV-2 (setting [25]) amounted to 0.16 µM. For the same molecule, the “IC50 fold lower than Tamoxifen” value in data set [11] came out at 1.4 fold. The “IC50 fold lower than Herceptin” value in [13] worked out at 16 fold. The “IC50 fold lower than Cisplatin” value in data set [2] is listed as 11 fold. Also, the “SI (selectivity index, CC50/IC50)” value in the data set on SARS-CoV-2 (SARS-CoV-2 in Vero cells) is 313. Moreover, the CC50 in the data set on Vero cells was more than 50 µM.

For `CC(=O)O[C@H]1C(=O)[C@@]2(C)[C@H]([C@H](OC(=O)c3ccccc3)[C@]3(O)C[C@H](OC(=O)[C@H](O)[C@@H](NC(=O)c4ccccc4)c4ccccc4)C(C)=C1C3(C)C)[C@]1(OC(C)=O)CO[C@@H]1C[C@@H]2O` [Paclitaxel, reference compound], the concentration for half-maximal inhibition (IC50) in [14] (Homo sapiens) came out at 13.7 µM.

As to `Cc1cccc(C)c1OCC(=O)N[C@@H](Cc1ccccc1)[C@@H](O)C[C@H](Cc1ccccc1)NC(=O)[C@H](C(C)C)N1CCCNC1=O` [Lopinavir], in the data set on SARS-CoV-2 (SARS-CoV-2 in Vero cells), the “IC50 fold higher than the IC50 of the cocrystal” value is “about 64.38 fold” and the “SI (selectivity index, CC50/IC50)” value is listed as 4.85. The IC50 with SARS-CoV-2 (setting [24]) was 10.3 µM. For the same molecule, the CC50 in the data set “in vitro” is more than 50 µM.

In the case of `CC(=O)O[C@@]12CO[C@@H]1C[C@H](O)[C@@]1(C)C(=O)[C@H](O)C3=C(C)[C@@H](OC(=O)[C@H](O)[C@@H](NC(=O)OC(C)(C)C)c4ccccc4)C[C@@](O)([C@@H](OC(=O)c4ccccc4)[C@H]21)C3(C)C` [Docetaxel, reference compound], the IC50 was 24.2 µM in data set [11] (Homo sapiens); not below 25 µM in [12] (Homo sapiens); not below 25 µM in [13] (Homo sapiens); not below 25 µM in [1] (Homo sapiens); not below 25 µM in data set [2] (Homo sapiens); 11.4 µM in [14] (Homo sapiens). Moreover, the IC50 was 0.763 µM in [19] and 0.635 µM in data set [20].

In the case of `CN(C)C(=O)COC(=O)Cc1ccc(OC(=O)c2ccc(NC(=N)N)cc2)cc1.O=C(Nc1ccc([N+](=O)[O-])cc1Cl)c1cc(Cl)ccc1O` [Example 21], the “Cumulative permeation amount J” value in [21] (camostat, donor pH 5.0 FeSSIF 37° C., acceptor ethyl alcohol:pH 7.4 PBS (1:9)) is 876.29 μg/ml/cm^2/h and 876.26 μg/ml/cm^2/h. Also, the “cumulative permeation amount of camostat, fold better than camostat single material” value in data set [21] (cocrystal vs camostat single material) came out at 1.56 fold.

For the molecule `CNC(=O)c1cc(Oc2ccc(NC(=O)Nc3ccc(Cl)c(C(F)(F)F)c3)cc2)ccn1` [Sorafenib], the IC50 is 12.3 µM in [22] and 6 µM in data set [23].

The IC50 is the concentration needed to halve the response being measured.
